# Tests used:
# Assay type in all cases: cell-based
# [1] = system: HOP-92; experiment: NCI 60 cell line screen (SRB), Non-Small Cell Lung Cancer; details: HOP-92 (Non-Small Cell Lung Cancer)
# [2] = system: TK-10; experiment: NCI 60 cell line screen (SRB), Renal Cancer; details: TK-10 (Renal Cancer)
# [3] = system: EKVX; experiment: NCI 60 cell line screen (SRB), Non-Small Cell Lung Cancer
# [4] = system: T-47D; experiment: NCI 60 cell line screen (SRB), Breast Cancer; details: T-47D (Breast Cancer)
# [5] = system: MDA-N; experiment: NCI 60 cell line screen (SRB), Breast Cancer
# [6] = system: M14; experiment: NCI 60 cell line screen (SRB), Melanoma
# [7] = system: SK-MEL-2; experiment: NCI 60 cell line screen (SRB), Melanoma; details: SK-MEL-2 (Melanoma)
# [8] = system: SN12C; experiment: NCI 60 cell line screen (SRB), Renal Cancer
# [9] = system: SNB-75; experiment: NCI 60 cell line screen (SRB), CNS Cancer; details: SNB-75 (CNS Cancer)
# [10] = system: HS 578T; experiment: NCI 60 cell line screen (SRB), Breast Cancer; details: HS 578T (Breast Cancer)
# [11] = system: CCRF-CEM; experiment: NCI 60 cell line screen (SRB), Leukemia
# [12] = system: HCC-2998; experiment: NCI 60 cell line screen (SRB), Colon Cancer; details: HCC-2998 (Colon Cancer)
# [13] = system: A498; experiment: NCI 60 cell line screen (SRB), Renal Cancer
# [14] = system: OVCAR-4; experiment: NCI 60 cell line screen (SRB), Ovarian Cancer; details: OVCAR-4 (Ovarian Cancer)
# [15] = system: A549/ATCC; experiment: NCI 60 cell line screen (SRB), Non-Small Cell Lung Cancer
# [16] = system: U251; experiment: NCI 60 cell line screen (SRB), CNS Cancer
# [17] = system: HT29; experiment: NCI 60 cell line screen (SRB), Colon Cancer
# [18] = system: 786-0; experiment: NCI 60 cell line screen (SRB), Renal Cancer; details: 786-0 (Renal Cancer)
# [19] = system: SK-MEL-5; experiment: NCI 60 cell line screen (SRB), Melanoma; details: SK-MEL-5 (Melanoma)
# [20] = system: murine keratinocyte cell line PE; experiment: Growth inhibition of PE cells (MTT assay); details: murine keratinocytes, FIGS. 1-9
# Procedure: To determine the inhibitory effect of the trioxane dimers of the present invention on cell proliferation, screening assays were performed on a murine keratinocyte cell line PE. […] PE cell culture medium consisted of Eagle's minimal essential medium without calcium chloride (Whittaker Bioproducts, Walkersville, Ma.) supplemented with 8% chelexed fetal calf serum and 1% antibiotic-antimycotic (Gibco BRL) and the addition of CaCl2 to 0.05 mM Ca^++. […] (St. Louis, Mo.), and TPA was supplied by L. C. Services (Woburn, Ma.). L-[^14C]ornithine ([…]) was from Amersham/Searle Corp. (Arlington Heights, Ill.). Chemical solvents used in all assays of biological activity were of the highest grade commercially available. Growth Inhibition. […] A mitochondrial dehydrogenase reduces MTT to a blue formazan product with an absorbance maximum of 505 nm in DMSO; the number of viable cells can thus be determined spectrophotometrically. PE cells were seeded at a density of 5,000 cells/well in 50 μL of medium into 96-well microtiter plates. […] The plates were fed once at 48 h, with the readdition of the vitamin D3 analogs at this time. […] After 4 h, the MTT was removed and DMSO added to dissolve the blue formazan dye. Using a microtiter plate reader, the […] was then determined and cell number calculated from blank-subtracted absorbance values.
# [21] = system: HL-60(TB); experiment: NCI 60 cell line screen (SRB), Leukemia; details: HL-60(TB) (Leukemia)
# [22] = system: HCT-15; experiment: NCI 60 cell line screen (SRB), Colon Cancer; details: HCT-15 (Colon Cancer)
# [23] = system: SNB-19; experiment: NCI 60 cell line screen (SRB), CNS Cancer; details: SNB-19 (CNS Cancer)
# [24] = system: KM12; experiment: NCI 60 cell line screen (SRB), Colon Cancer
# [25] = system: UACC-257; experiment: NCI 60 cell line screen (SRB), Melanoma; details: UACC-257 (Melanoma)
# [26] = system: COLO 205; experiment: NCI 60 cell line screen (SRB), Colon Cancer; details: COLO 205 (Colon Cancer)
# [27] = system: NCI-H322M; experiment: NCI 60 cell line screen (SRB), Non-Small Cell Lung Cancer
# [28] = system: NCI-H522; experiment: as above
structure (smiles),measurement,setting,value
"COC1OC2(C)CCC3CCCC(CCOC(=O)c4cccc(C(=O)OCCC5CCCC6CCC7(C)OOC56C(OC)O7)c4)C31OO2 (stereo not shown) [Compound 10, Trioxane Bis-ester Dimer]",Log10GI50,[1],−6.01 M
same,Log10LC50,[1],>−4.30 M
same,Log10TGI,[1],−4.64 M
same,Log10GI50,[2],−5.39 M
same,Log10LC50,[2],>−4.30 M
same,Log10TGI,[2],>−4.30 M
same,Log10GI50,[3],−5.31 M
same,Log10LC50,[3],>−4.30 M
same,Log10TGI,[3],>−4.30 M
same,Log10GI50,[4],−6.76 M
same,Log10LC50,[4],>−4.30 M
same,Log10TGI,[4],>−4.30 M
same,Log10GI50,[5],−5.97 M
same,Log10LC50,[5],>−4.30 M
same,Log10TGI,[5],>−4.30 M
same,Log10GI50,[6],−5.08 M
same,Log10LC50,[6],>−4.30 M
same,Log10TGI,[6],>−4.30 M
same,Log10GI50,[7],−5.47 M
same,Log10LC50,[7],>−4.30 M
same,Log10TGI,[7],>−4.30 M
same,Log10GI50,[8],−5.73 M
same,Log10LC50,[8],>−4.30 M
same,Log10TGI,[8],>−4.30 M
same,Log10GI50,[9],−5.56 M
same,Log10LC50,[9],>−4.30 M
same,Log10TGI,[9],>−4.30 M
same,Log10GI50,[10],−6.07 M
same,Log10LC50,[10],>−4.30 M
same,Log10TGI,[10],>−4.30 M
same,Log10GI50,[11],−7.15 M
same,Log10LC50,[11],>−4.30 M
same,Log10TGI,[11],−5.70 M
same,Log10GI50,[12],−5.32 M
same,Log10LC50,[12],>−4.30 M
same,Log10TGI,[12],>−4.30 M
same,Log10GI50,[13],>−4.30 M
same,Log10LC50,[13],>−4.30 M
same,Log10TGI,[13],>−4.30 M
same,Log10GI50,[14],>−4.0 M
same,Log10LC50,[14],>−4.30 M
same,Log10TGI,[14],>−4.30 M
same,Log10GI50,[15],−5.89 M
same,Log10LC50,[15],>−4.30 M
same,Log10TGI,[15],>−4.30 M
same,Log10GI50,[16],−6.09 M
same,Log10LC50,[16],>−4.30 M
same,Log10TGI,[16],>−4.30 M
same,Log10GI50,[17],−6.35 M
same,Log10LC50,[17],>−4.30 M
same,Log10TGI,[17],>−4.30 M
same,Log10GI50,[18],−5.57 M
same,Log10LC50,[18],>−4.30 M
same,Log10TGI,[18],>−4.30 M
same,Log10GI50,[19],−5.57 M
same,Log10LC50,[19],>−4.30 M
same,Log10TGI,[19],>−4.30 M
same,antiproliferative activity,[20],high antiproliferative activity
same,Log10GI50,[21],−7.21 M
same,Log10LC50,[21],>−4.30 M
same,Log10TGI,[21],−6.56 M
same,Log10GI50,[22],−6.14 M
same,Log10LC50,[22],>−4.30 M
same,Log10TGI,[22],>−4.30 M
same,Log10GI50,[23],>−4.30 M
same,Log10LC50,[23],>−4.30 M
same,Log10TGI,[23],>−4.30 M
same,Log10GI50,[24],−5.97 M
same,Log10LC50,[24],>−4.30 M
same,Log10TGI,[24],>−4.30 M
same,Log10GI50,[25],−5.03 M
same,Log10LC50,[25],>−4.30 M
same,Log10TGI,[25],>−4.30 M
same,Log10GI50,[26],−6.45 M
same,Log10LC50,[26],−4.48 M
same,Log10TGI,[26],−5.18 M
same,Log10GI50,[27],>−4.30 M
same,Log10LC50,[27],>−4.30 M
same,Log10TGI,[27],>−4.0 M
same,Log10GI50,[28],−6.13 M
same,Log10LC50,[28],>−4.30 M
same,Log10TGI,[28],>−4.30 M

# Source: patent USRE38117E1, “Trioxane dimer compound having antiproliferative and antitumor activities” (Hauser, Inc., priority 1995, dated 2003)
